The source of these data is US10519105B2, “KCNQ2-5 channel activator” (ONO PHARMACEUTICAL CO., LTD., priority 2016, dated 2019).

SMILES strings stand for the structures. ≈ marks a conversion by molar mass, not a printed value.

The target in data set [1] is T1, Human KCNQ2/3 channel (Homo sapiens, UniProt O43525+O43526).
T1 construct: expressed in transfected cells; host or cells: CHO-DHFR- cells
The data set is described as follows: Opening action with respect to KCNQ2/3 channel by depolarization stimulation (thallium influx, FLIPR). Format: cell-based. As to conditions: concentration giving 50% of the maximum reaction of retigabine (10 μM); human KCNQ2/3 expressing CHO-DHFR- cells; read-out: KCNQ2/3 ECrtg50. The procedure: Human KCNQ2/3 expression cells (CHO-DHFR− cells) were seeded in each well of a 384-well plate (collagen-coated, black, clear bottom) at 0.5×10^4 cells/50 μL per well and cultured using a MEM ALPHA medium (containing 10 vol % inactivated (56° C., 30 min) fetal bovine serum, 100 IU/mL penicillin, 100 μg/mL streptomycin, and 2 mM L-glutamine) at 37° C. in 5% CO2 for 18 to 24 hours. After the medium in the plate was removed, incubation (room temperature, 60 minutes, shading) was performed in a loading buffer (prepared by the method described in the manual of FluxOR Thallium Detection Kit (Invitrogen, F10016, F10017)). A KCNQ2/3 channel opening action (thallium influx into cells) by depolarization stimulation (5 mM potassium and 0.5 mM thallium) was measured by FLIPR TETRA (Molecular Devices). The compound of the present invention was treated 5 minutes before the depolarization stimulation, and the reaction induced by the depolarization stimulation was measured over time for 180 seconds. The channel opening action of the compound of the present invention was evaluated based on the change amount of the fluorescence intensity from the time before the depolarization stimulation to the time after the elapse of 180 seconds, and the concentration (ECrtg50) satisfying 50% of the fluorescence intensity change of a maximum reaction (in the treatment at 10 μM) of retigabine under the conditions of this experiment was calculated.

Data set [2] can be described thus: Stability in human liver microsomes. It counts as in vitro ADME. The settings on record: human liver microsomes 0.5 mg/mL, NADPH, 5 μM, 37° C., 15 minutes. The procedure:
A test compound (a 10 mM DMSO solution, 5 μL) was diluted with a 50% aqueous acetonitrile solution (195 μL), whereby a 0.25 mM solution was prepared.
To a reaction vessel preheated to 37° C., 0.5 mg/mL of human liver microsomes (XenoTech, LLC) and 245 JLL of a 0.1 M phosphate buffer solution (pH 7.4) containing NADPH co-factor (BD Biosciences) were added, followed by preincubation for 5 minutes, and thereafter, the above-prepared test compound solution (5 μL) was added thereto to start a reaction (final concentration: 5 μM). Immediately after the start, a 20 μL portion was collected and added to 180 μL of acetonitrile containing an internal standard substance (warfarin) to stop the reaction. A 20 μL portion of this solution was stirred with 180 μL of a 50% aqueous acetonitrile solution on a plate equipped with a deproteinization filter, followed by suction filtration, and the filtrate was used as a standard sample.
After the above-prepared reaction solution was incubated at 37° C. for 15 minutes, a 20 μL portion of the solution was added to 180 μL of cooled acetonitrile (containing warfarin serving as an internal standard substance) to stop the reaction. A 20 μL portion of this solution was stirred with 180 μL of a 50% aqueous acetonitrile solution on a plate equipped with a deproteinization filter, followed by suction filtration, and the filtrate was used as a reaction sample.
A residual ratio (%) was calculated as follows. 1 μL of the sample solution was injected into LC-MS/MS (Discovery Max, manufactured by Thermo Scientific, Inc.), and a value obtained by dividing the peak area ratio of the reaction sample (peak area of test compound/peak area of internal standard substance) by the peak area ratio of the standard sample was multiplied by 100.
Background: Liver microsomes are a subcellular fraction often used to study metabolism.

The nature of data set [3]: Solubility test (DMSO precipitation method, Japanese Pharmacopoeia dissolution test second solution). Format: physicochemical. As to conditions: aqueous buffer, kinetic from dmso stock, JP dissolution test second solution pH 6.8, room temperature, quantification range 5 to 100 μM. How it is done:
A calibration curve solution was prepared at 0.1, 0.4, and 2 μM by diluting a test substance (a 10 mM DMSO solution) with acetonitrile and adding acetonitrile containing an internal standard substance (candesartan).
A sample solution was prepared as follows. 5 μL of the compound of the present invention (a 10 mM DMSO solution) was added to 495 μL of the Japanese Pharmacopoeia dissolution test second solution (pH: 6.8), followed by stirring at room temperature for 5 hours. Then, the solution was transferred to a solubility filter plate and subjected to suction filtration. The filtrate (20 μL) was diluted with acetonitrile, followed by adding acetonitrile containing an internal standard substance (candesartan).
Each of the calibration curve and sample solutions (5 μL) was injected into LC-MS/MS (Discovery Max, manufactured by Thermo Scientific, Inc.) and subjected to quantification (quantification range: 5 to 100 μM). The solubility in the case where the value equal to or less than the quantification range was obtained was defined as <5 μM, and the solubility in the case where the value equal to or more than the quantification range was obtained was defined as […].

On to `C[C@@H](NC(=O)Nc1c(Cl)cc2c(c1Cl)CC[C@@]2(O)C(F)(F)F)c1ccc(F)cc1` [Example 22, 1-[(1S)-4,6-dichloro-1-hydroxy-1-(trifluoromethyl)-2,3-dihydro-1H-inden-5-yl]-3-[(1R)-1-(4-fluorophenyl)ethyl]urea], for which the EC50 in data set [1] came to 1 nM.
The same measure, in the same setting: under `O=C(NCc1ccc(-c2ccc(Cl)cc2)o1)Nc1c(Cl)cc2c(c1Cl)CCC2(O)C(F)(F)F` (stereo not drawn) [Example 12(16), 1-{[5-(4-chlorophenyl)-2-furyl]methyl}-3-[4,6-dichloro-1-hydroxy-1-(trifluoromethyl)-2,3-dihydro-1H-inden-5-yl]urea] stands 10 nM.
What is called solubility is the dissolved amount per volume that the medium holds. Low readings indicate a poorly soluble substance, high ones a readily soluble substance. As to `CC1(C)CC(C)(O)c2cc(Cl)c(NC(=O)NCc3ccc(C(F)(F)F)cn3)c(Cl)c21` (stereo not drawn) [Example 35, 1-(4,6-dichloro-1-hydroxy-1,3,3-trimethyl-2,3-dihydro-1H-inden-5-yl)-3-{[5-(trifluoromethyl)-2 pyridinyl]methyl}urea], in data set [2], the Residual ratio is 81%. Moreover, the EC50 in data set [1] came out at 300 nM. This compound yielded a solubility at 5 h in data set [3] of 80 µM (≈ 37 µg/mL).
Take `CC1(O)CCc2c1cc(Cl)c(NC(=O)NCC1CC3CCC1C3)c2Cl` (stereo not drawn) [Example 3(25), 1-(bicyclo[2.2.1]hept-2-ylmethyl)-3-(4,6-dichloro-1-hydroxy-1-methyl-2,3-dihydro-1H-inden-5-yl)urea]: the EC50 in data set [1] was found to be 10 nM.
The same measure, in the same setting: then `O=C(NCc1cc2ccccc2[nH]1)Nc1c(Cl)cc2c(c1Cl)CCC2(O)C(F)(F)F` (stereo not drawn) [Example 12(21), 1-[4,6-dichloro-1-hydroxy-1-(trifluoromethyl)-2,3-dihydro-1H-inden-5-yl]-3-(1H-indol-2-ylmethyl)urea], with 20 nM.
As to `CC1(O)CCc2c1cc(Cl)c(NC(=O)NCCC1CCCC1)c2Cl` (stereo not drawn) [Example 3(13), 1-(2-cyclopentylethyl)-3-(4,6-dichloro-1-hydroxy-1-methyl-2,3-dihydro-1H-inden-5-yl)urea], in data set [1], the EC50 came to 20 nM. Moreover, in data set [3], the concentration in solution (solubility at 5 h) was 92 µM (≈ 34.2 µg/mL).
`CC1(O)CCc2c1cc(Cl)c(NC(=O)NC(C)(C)c1ccc(F)cc1)c2Cl` (stereo not drawn) [Example 3(10), 1-(4,6-dichloro-1-hydroxy-1-methyl-2,3-dihydro-1H-inden-5-yl)-3-[2-(4-fluorophenyl)-2-propanyl]urea]: the EC50 in data set [1] came out at 300 nM.
With `O=C(NCC1CC1)Nc1c(Cl)cc2c(c1Cl)CCC2(O)C(F)(F)F` (stereo not drawn) [Example 12(13), 1-(cyclopropylmethyl)-3-[4,6-dichloro-1-hydroxy-1-(trifluoromethyl)-2,3-dihydro-1H-inden-5-yl]urea], in data set [2], the Residual ratio worked out at 100%. In addition, the EC50 in data set [1] amounted to 60 nM. This compound gave a solubility at 5 h in data set [3] of 78 µM (≈ 29.9 µg/mL).
Regarding `C[C@@H](NC(=O)Nc1c(Cl)cc2c(c1Cl)CC[C@]2(O)C(F)(F)F)c1ccc(F)cc1` [Example 21, 1-[(1R)-4,6-dichloro-1-hydroxy-1-(trifluoromethyl)-2,3-dihydro-1H-inden-5-yl]-3-[(1R)-1-(4-fluorophenyl)ethyl]urea], in data set [2], the Residual ratio is 95%. In data set [1], the EC50 came to 5 nM. Moreover, the concentration in solution in data set [3] (solubility at 5 h) came to 72 µM (≈ 32.5 µg/mL).
As for `CC1(CNC(=O)Nc2c(Cl)cc3c(c2Cl)CCC3(O)C(F)(F)F)CC1` (stereo not drawn) [Example 12(17), 1-[4,6-dichloro-1-hydroxy-1-(trifluoromethyl)-2,3-dihydro-1H-inden-5-yl]-3-[(1-methylcyclopropyl)methyl]urea], the EC50 in data set [1] came out at 20 nM.
The same measure, in the same setting: then `CC1(O)CCc2c1cc(Cl)c(NC(=O)NCc1cccc(C(F)(F)F)c1)c2Cl` (stereo not drawn) [Example 3(9), 1-(4,6-dichloro-1-hydroxy-1-methyl-2,3-dihydro-1H-inden-5-yl)-3-[3-(trifluoromethyl)benzyl]urea], with 40 nM.
As to `Cc1cc(CNC(=O)Nc2c(Cl)cc3c(c2Cl)CCC3(O)C(F)(F)F)no1` (stereo not drawn) [Example 12(8), 1-[4,6-dichloro-1-hydroxy-1-(trifluoromethyl)-2,3-dihydro-1H-inden-5-yl]-3-[(5-methyl-1,2-oxazole-3-yl)methyl]urea], in data set [2], the Residual ratio is given as 100%. Besides, in data set [1], the EC50 amounted to 200 nM. The compound also yielded a solubility at 5 h in data set [3] of 94 µM (≈ 39.9 µg/mL).
Consider `O=C(NCc1cccc(N2CCCCC2)n1)Nc1c(Cl)cc2c(c1Cl)CCC2(O)C(F)(F)F` (stereo not drawn) [Example 12(9), 1-[4,6-dichloro-1-hydroxy-1-(trifluoromethyl)-2,3-dihydro-1H-inden-5-yl]-3-{[6-(1-piperidinyl)-2 pyridinyl]methyl}urea], for which, in data set [1], the EC50 is 50 nM.
On the same count and under the same terms, then `CC1(O)CCc2c1cc(Cl)c(NC(=O)NCCOC1CCCCC1)c2Cl` (stereo not drawn) [Example 3(24), 1-[2-(cyclohexyloxy)ethyl]-3-(4,6-dichloro-1-hydroxy-1-methyl-2,3-dihydro-1H-inden-5-yl)urea], with 400 nM.
Take `CC1(O)CCc2c1cc(Cl)c(NC(=O)NCCc1ccc(F)cc1)c2Cl` (stereo not drawn) [Example 3(7), 1-(4,6-dichloro-1-hydroxy-1-methyl-2,3-dihydro-1H-inden-5-yl)-3-[2-(4-fluorophenyl)ethyl]urea]: the EC50 in data set [1] was determined as 500 nM. In data set [3], the solubility at 5 h stood at 86 µM (≈ 34.2 µg/mL).
Turning to `CC1(O)CCc2c1cc(Cl)c(NC(=O)OCc1ccc(F)cc1)c2Cl` (stereo not drawn) [Example 3(19), 4-fluorobenzyl(4,6-dichloro-1-hydroxy-1-methyl-2,3-dihydro-1H-inden-5-yl)carbamate], in data set [2], the Residual ratio is listed as 83%. Moreover, the EC50 in data set [1] worked out at 50 nM. The compound further registered a solubility at 5 h in data set [3] of 76 µM (≈ 29.2 µg/mL).
On to `CC1(O)CCc2c1cc(Cl)c(NC(=O)NCc1ccc(OC(F)(F)F)cc1F)c2Cl` (stereo not drawn) [Example 3(16), 1-(4,6-dichloro-1-hydroxy-1-methyl-2,3-dihydro-1H-inden-5-yl)-3-[2-fluoro-4-(trifluoromethoxy)benzyl]urea], for which the EC50 in data set [1] came out at 30 nM.
With `CC1(CNC(=O)Nc2c(Cl)cc3c(c2Cl)CCC3(O)C(F)(F)F)CCOCC1` (stereo not drawn) [Example 12(2), 1-[4,6-dichloro-1-hydroxy-1-(trifluoromethyl)-2,3-dihydro-1H-inden-5-yl]-3-[(4-methyltetrahydro-2H-pyran-4-yl)methyl]urea], the EC50 in data set [1] amounted to 200 nM. This compound returned a solubility at 5 h in data set [3] of 85 µM (≈ 37.5 µg/mL).
On the same counts, the results for `CC1(O)CCc2c1cc(Cl)c(NC(=O)NCCOc1ccc(F)cc1)c2Cl` (stereo not drawn) [Example 3(23), 1-(4,6-dichloro-1-hydroxy-1-methyl-2,3-dihydro-1H-inden-5-yl)-3-[2-(4-fluorophenoxy)ethyl]urea] are 600 nM and 83 µM (≈ 34.3 µg/mL).
